Measured values: patent US20180170903A1, “PYRIDIN-3-YL ACETIC ACID DERIVATIVES AS INHIBITORS OF HUMAN IMMUNODEFICIENCY VIRUS REPLICATION” (ViiV HEALTHCARE UK (NO.5) LIMITED, priority 2015, published 2018)
pEC50: −log10 of the molar value.

The compounds below were run on NL-RLuc virus (recombinant HIV NL4-3 proviral clone with Renilla Luciferase) in MT-2 cells (assay: Inhibition of HIV Replication (NL-RLuc luciferase reporter virus, MT-2 cells)). Settings: MT2, 120 h, read-out: Activity.
Type: cell-based
Excerpt: Inhibition of HIV Replication:
A recombinant NL-RLuc proviral clone was constructed in which a section of the nef gene from NL4-3 was replaced with the Renilla Luciferase gene. This virus is fully infectious and can undergo multiple cycles of replication in cell culture. In addition, the luciferous reporter provides a simple and easy method for quantitating the extent of virus growth and consequently, the antiviral activity of test compounds. The plasmid pNLRLuc contains the proviral NL-Rluc DNA cloned into pUC 18 at the PvuII site. The NL-RLuc virus was prepared by transfection of 293T cells with the plasmid pNLRLuc. Transfections were performed using the LipofectAMINE PLUS kit from Invitrogen (Carlsbad, Calif.) according to the manufacturer and the virus generated was titered in MT-2 cells. For susceptibility analyses, the titrated virus was used to infect MT-2 cells in the presence of compound, and after 5 days of incubation, cells were processed and quantitated for virus growth by the amount of expressed luciferase. Assay media was RPMI 1640 supplemented with 10% heat inactivated fetal bovine serum (FBS), 100 units/ml penicillin G/100 units/ml streptomycin, 10 mM HEPES buffer pH 7.55 and 2 mM L-glutamine. The results from at least 2 experiments were used to calculate the EC50 values. Luciferase was quantitated using the Dual Luciferase kit from Promega (Madison, Wis.). Susceptibility of viruses to compounds was determined by incubation in the presence of serial dilutions of the compound. The 50% effective concentration (EC50) was calculated by using the exponential form of the median effect equation where (Fa)=1/[1+(ED50/drug conc.)^m](Johnson V A, Byington R T. Infectivity Assay. In Techniques in HIV Research. ed. Aldovini A, Walker B D. 71-76. New York: Stockton Press. 1990). Activity equal to A refers to a compound having an EC50≤100 nM, while B and C denote compounds having an EC50 between 100 nM and 1 uM (B) or >1 uM (C).

Q: How did the pEC50 turn out when Cc1nc(C)c([C@H](OC(C)(C)C)C(=O)O)c(N2CCC(C)(C)CC2)c1-c1ccc(COCc2ccc(F)cc2)cc1 [Example 51, (S)-2-(tert-Butoxy)-2-(4-(4,4-dimethylpiperidin-1-yl)-5-(4-(((4-fluorobenzyl)oxy)methyl)phenyl)-2,6-dimethylpyridin-3-yl)acetic acid] was run?
A: The pEC50 was less than 6.00.

Q: Cc1nc(C)c([C@H](OC(C)(C)C)C(=O)O)c(N2CCC(C)(C)CC2)c1-c1ccc(COc2cccc(C(F)(F)F)c2)cc1 [Example 48, (S)-2-(tert-Butoxy)-2-(4-(4,4-dimethylpiperidin-1-yl)-2,6-dimethyl-5-(4-((3-(trifluoromethyl)phenoxy)methyl)phenyl)pyridin-3-yl)acetic acid] was tested. Which pEC50 did it give?
A: Its pEC50 is greater than 7.00.

Q: CC(=O)N(Cc1ccc(F)cc1)Cc1ccc(-c2c(C)nc(C)c([C@H](OC(C)(C)C)C(=O)O)c2N2CCC(C)(C)CC2)cc1 [Example 24, (S)-2-(tert-butoxy)-2-(4-(4,4-dimethylpiperidin-1-yl)-5-(4-((N-(4-fluorobenzyl)acetamido)methyl)phenyl)-2,6-dimethylpyridin-3-yl)acetic acid] was tested. Which pEC50 did it give?
A: The pEC50 was greater than 7.00.

Q: How did the pEC50 turn out when Cc1nc(C)c([C@H](OC(C)(C)C)C(=O)O)c(N2CCC(C)(C)CC2)c1-c1ccc(CN(C)CCc2ccc(F)cc2)cc1 [Example 5, (S)-2-(tert-butoxy)-2-(4-(4,4-dimethylpiperidin-1-yl)-5-(4-(((4-fluorophenethyl)(methyl)amino)methyl)phenyl)-2,6-dimethylpyridin-3-yl)acetic acid] was run?
A: Its pEC50 is greater than 7.00.

Q: With Cc1nc(C)c([C@H](OC(C)(C)C)C(=O)O)c(N2CCC(C)(C)CC2)c1-c1ccc(CN(C)Cc2ccc(F)cc2)cc1 [Example 7, (S)-2-(tert-butoxy)-2-(4-(4,4-dimethylpiperidin-1-yl)-5-(4-(((4-fluorobenzyl)(methyl)amino)methyl)phenyl)-2,6-dimethylpyridin-3-yl)acetic acid] as the compound, how does the pEC50 read?
A: Its pEC50 is greater than 7.00.

Q: How did the pEC50 turn out when Cc1nc(C)c([C@H](OC(C)(C)C)C(=O)O)c(N2CCC(C)(C)CC2)c1-c1ccc(CNCc2ccc(Cl)c(Cl)c2)cc1 [Example 12, (S)-2-(tert-butoxy)-2-(5-(4-(((3,4-dichlorobenzyl)amino)methyl)phenyl)-4-(4,4-dimethylpiperidin-1-yl)-2,6-dimethylpyridin-3-yl)acetic acid] was run?
A: Its pEC50 is greater than 7.00.

Q: How did the pEC50 turn out when Cc1cc(C(=O)N(Cc2ccc(F)cc2)Cc2ccc(-c3c(C)nc(C)c([C@H](OC(C)(C)C)C(=O)O)c3N3CCC(C)(C)CC3)cc2)c(C)o1 [Example 29, (S)-2-(terr-butoxy)-2-(4-(4,4-dimethylpiperidin-1-yl)-5-(4-((N-(4-fluorobenzyl)-2,5-dimethylfuran-3-carboxamido)methyl)phenyl)-2,6-dimethylpyridin-3-yl)acetic acid] was run?
A: The pEC50 was greater than 7.00.

Q: How did the pEC50 turn out when Cc1nc(C)c([C@H](OC(C)(C)C)C(=O)O)c(N2CCC(C)(C)CC2)c1-c1ccc(CN(Cc2ccc(F)cc2)C(=O)c2ccccc2)cc1 [Example 21, (S)-2-(tert-butoxy)-2-(4-(4,4-dimethylpiperidin-1-yl)-5-(4-((N-(4-fluorobenzyl)benamido)methyl)phenyl)-2,6-dimethylpyridin-3-yl)acetic acid] was run?
A: The pEC50 was greater than 7.00.

Q: How did the pEC50 turn out when Cc1nc(C)c([C@H](OC(C)(C)C)C(=O)O)c(N2CCC(C)(C)CC2)c1-c1ccc(CNCc2ccc(Cl)cc2)cc1 [Example 15, (S)-2-(tert-butoxy)-2-(5-(4-(((4-chlorobenzyl)amino)methyl)phenyl)-4-(4,4-dimethylpiperidin-1-yl)-2,6-dimethylpyridin-3-yl)acetic acid] was run?
A: The pEC50 was greater than 7.00.

Q: With Cc1ccccc1C(=O)N(Cc1ccc(F)cc1)Cc1ccc(-c2c(C)nc(C)c([C@H](OC(C)(C)C)C(=O)O)c2N2CCC(C)(C)CC2)cc1 [Example 43, (S)-2-(tert-butoxy)-2-(4-(4,4-dimethylpiperidin-1-yl)-5-(4-((N-(4-fluorobenzyl)-2-methylbenzamido)methyl)phenyl)-2,6-dimethylpyridin-3-yl)acetic acid] as the compound, how does the pEC50 read?
A: Its pEC50 is greater than 7.00.

Q: How did the pEC50 turn out when Cc1nc(C)c([C@H](OC(C)(C)C)C(=O)O)c(N2CCC(C)(C)CC2)c1-c1ccc(CN(Cc2ccc(F)cc2)C(=O)c2cccc(C(F)(F)F)c2)cc1 [Example 38, (S)-2-(tert-butoxy)-2-(4-(4,4-dimethylpiperidin-1-yl)-5-(4-((N-(4-fluorobenzyl)-3-(trifluoromethyl)benzamio)methyl)phenyl)-2,6-dimethylpyridin-3-yl)acetic acid] was run?
A: The pEC50 was greater than 7.00.

Q: How did the pEC50 turn out when Cc1nc(C)c([C@H](OC(C)(C)C)C(=O)O)c(N2CCC(C)(C)CC2)c1-c1ccc(CNCCc2ccc(F)cc2)cc1 [Example 11, (S)-2-(tert-butoxy)-2-(4-(4,4-dimethylpiperidin-1-yl)-5-(4-(((4-fluorophenethyl)amino)methyl)phenyl)-2,6-dimethylpyridin-3-yl)acetic acid] was run?
A: The pEC50 was greater than 7.00.
